SMILES strings stand for the structures.

What is called inhibition is the drop in the measured response relative to a control, in per cent. By IC50 is commonly meant the midpoint of a concentration-inhibition curve. High values mean a need for much substance, low ones inhibition by little substance.

Assay [1] deals with T1, 5-Lipoxygenase (crude enzyme preparation from rat basophilic leukemia cells, RBL-1) (Rattus norvegicus, UniProt P12527).
T1 construct: crude enzyme preparation from rat basophilic leukemia cells (RBL-1); endogenous in cells; host or cells: rat basophilic leukemia cells (RBL-1)
T1 sequence (P12527 1-673): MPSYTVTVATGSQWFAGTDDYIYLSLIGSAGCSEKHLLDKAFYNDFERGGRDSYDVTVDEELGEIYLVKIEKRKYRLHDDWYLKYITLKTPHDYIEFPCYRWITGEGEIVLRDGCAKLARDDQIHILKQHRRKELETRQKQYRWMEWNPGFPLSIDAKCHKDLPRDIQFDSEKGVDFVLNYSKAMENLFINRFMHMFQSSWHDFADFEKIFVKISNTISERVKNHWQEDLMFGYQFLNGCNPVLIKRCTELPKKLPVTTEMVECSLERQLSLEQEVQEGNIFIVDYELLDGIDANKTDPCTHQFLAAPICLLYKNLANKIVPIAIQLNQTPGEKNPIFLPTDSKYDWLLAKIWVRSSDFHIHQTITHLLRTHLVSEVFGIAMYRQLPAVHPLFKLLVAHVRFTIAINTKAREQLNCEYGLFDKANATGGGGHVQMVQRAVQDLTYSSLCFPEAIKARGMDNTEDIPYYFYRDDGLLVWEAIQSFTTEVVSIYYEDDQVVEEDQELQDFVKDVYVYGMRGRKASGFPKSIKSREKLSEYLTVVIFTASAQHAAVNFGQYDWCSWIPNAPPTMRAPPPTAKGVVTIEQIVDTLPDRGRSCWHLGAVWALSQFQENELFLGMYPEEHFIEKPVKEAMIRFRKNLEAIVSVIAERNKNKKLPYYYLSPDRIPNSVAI
Put plainly: 5-Lipoxygenase screen (5-LO), 5-HETE by RIA. The following applies: for inhibition at 30 µM: read-out: 5-LO percent inhibition; for inhibition at 1 µM: read-out: Percent inhibition of 5-LO. It is filed as biochemical. The method, then: (§1) The compounds of the invention were screened for their anti-inflammatory activity using a series of in vitro tests the details of which are given below. The activity of various compounds against 5-lipoxygenase, cycloxygenase-1, cycloxygenase-2 and lipid peroxidase was evaluated. Results of the screening procedures are included in TABLE I, and the activity against 5-lipoxygenase at a test concentration of 1 μM in Table II.
5-Lipoxygenase catalyzes the oxidative metabolism of arachidonic acid to […] (5-HETE), the initial reaction leading to the formation of the leukotrienes. Briefly, the testing procedure utilizes a crude enzyme preparation from rat basophilic leukemia cells (RBL-1) according to the methods of T. Shimuzu et al. Pro. […] Test compounds are pre-incubated with the enzyme preparation for 5 minutes at room temperature and the reaction is initiated by the addition of arachidonic acid. Following an 8 minute incubation at room temperature, the reaction is terminated by the addition of citric acid and concentrations of 5-HETE are determined by RIA. Compounds are screened at 30 μM.

The target in assay [2] is T2, Cyclooxygenase-1 (cyclooxygenase from ram seminal vesicles) (Ovis aries, UniProt P05979).
T2 construct: cyclooxygenase from ram seminal vesicles; from tissue; host or cells: ram seminal vesicles
T2 sequence (P05979 25-600): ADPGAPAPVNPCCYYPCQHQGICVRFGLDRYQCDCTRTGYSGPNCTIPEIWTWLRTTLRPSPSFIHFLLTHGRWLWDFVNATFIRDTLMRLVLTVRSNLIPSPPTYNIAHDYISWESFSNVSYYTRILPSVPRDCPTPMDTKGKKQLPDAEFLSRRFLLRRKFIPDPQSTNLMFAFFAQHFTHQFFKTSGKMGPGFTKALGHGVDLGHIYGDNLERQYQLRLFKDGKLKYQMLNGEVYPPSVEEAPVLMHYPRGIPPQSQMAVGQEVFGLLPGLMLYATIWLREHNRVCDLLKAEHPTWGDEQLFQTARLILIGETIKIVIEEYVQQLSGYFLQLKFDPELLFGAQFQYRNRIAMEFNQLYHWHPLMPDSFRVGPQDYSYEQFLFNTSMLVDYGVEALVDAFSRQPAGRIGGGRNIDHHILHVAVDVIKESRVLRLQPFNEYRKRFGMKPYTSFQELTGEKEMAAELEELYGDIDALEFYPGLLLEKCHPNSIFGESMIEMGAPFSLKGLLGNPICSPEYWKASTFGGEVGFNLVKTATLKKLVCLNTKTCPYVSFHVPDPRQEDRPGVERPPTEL
As to the kind of experiment: Cyclooxygenase-1 screen (COX-1). It is filed as biochemical. The following applies: 300 μM. The method, then:
as §1
Cyclooxygenase-1 is involved in the formation of prostaglandins and thromboxane via the oxidative metabolism of arachidonic acid. Briefly, cyclooxygenase from ram seminal vesicles is incubated with arachidonic acid (100 μm) for 2 minutes at 37° C. in the presence or absence of test compounds according to the methods of A. T. Evans et al., Biochem. Pharm. 36:2035-2037(1987) and R. Boopathy et al., Biochem J. 239:371-377 (1968). The assay is terminated by the addition of trichioroacetic acid and cyclooxygenase activity is determined by reading the absorbance at 530 nm. […]

The subject of assay [3] is Lipid peroxidation (rat liver microsomes). As to the kind of experiment: Lipid peroxidation screen (LPO), CCl4-induced, liver microsomes. It is filed as biochemical. The note with it: 300 μM. How it is done:
as §1
Lipid peroxidation is a consequence of various stimuli, including reactive free radicals. Polyunsaturated fatty acids associated with plasma membranes are degraded due to enzymatic induction by reactive agents such as CCl4, leading to cellular damage. Briefly, microsomes are prepared from rat livers and the protein concentration is determined according to the method of D. Mansuy et al., Biochem. Biophys. Res. Comm. 135:1015-1021(1986). A reaction mixture consisting of 2 mg of the microsomal preparation, an NADPH generating system, 20 mM CCl4 and test compound are incubated for 12 minutes at 37° C. The reaction is terminated by the addition of a mixture of thiobarbituric acid and trichloroacetic acid. The absorbance is read at 535 nm and is proportional to the concentration of malondialdehyde. Compounds are screened at 300 μM.
(Liver microsomes are a subcellular fraction often used to study metabolism.)

For assay [4], the target named is T3, Cyclooxygenase-2 (prostaglandin H synthetase-2) from sheep placenta (Ovis aries, UniProt P79208).
T3 construct: cyclooxygenase-2 from sheep placenta; from tissue; host or cells: sheep placenta
T3 sequence (P79208 17-603): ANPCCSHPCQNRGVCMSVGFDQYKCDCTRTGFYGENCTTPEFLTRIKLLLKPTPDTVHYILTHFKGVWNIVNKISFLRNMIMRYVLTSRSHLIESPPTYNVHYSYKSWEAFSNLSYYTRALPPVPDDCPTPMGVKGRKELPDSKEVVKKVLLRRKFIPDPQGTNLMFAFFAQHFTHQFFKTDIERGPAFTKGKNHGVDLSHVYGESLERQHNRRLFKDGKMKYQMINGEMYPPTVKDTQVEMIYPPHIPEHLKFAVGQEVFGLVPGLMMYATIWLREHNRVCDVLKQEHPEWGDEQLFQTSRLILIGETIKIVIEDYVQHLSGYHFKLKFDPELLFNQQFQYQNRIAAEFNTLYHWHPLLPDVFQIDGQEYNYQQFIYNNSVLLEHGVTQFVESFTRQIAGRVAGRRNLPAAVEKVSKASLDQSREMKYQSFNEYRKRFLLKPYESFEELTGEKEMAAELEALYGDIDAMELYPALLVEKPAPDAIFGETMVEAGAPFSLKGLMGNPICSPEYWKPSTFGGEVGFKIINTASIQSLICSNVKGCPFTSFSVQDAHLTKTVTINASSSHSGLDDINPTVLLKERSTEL
As to the kind of experiment: Cyclooxygenase-2 screen (COX-2). The class given is biochemical. The following applies: read-out: COX-2 percent inhibition. How it is done:
as §1
Cyclooxygenase-2, also known as prostaglandin H synthetase-2, catalyzes the rate- limiting step in the synthesis of inflammatory prostaglandins. In this reaction cyclooxygenase-2 catalyzes the oxygenation of unesterified precursors to form cyclic endoperoxide derivatives, including prostaglandin H. Briefly, cyclooxygenase-2 from sheep placenta, 14 μg/assay tube, is incubated with arachidonic acid (500 μM) for 1.5 minutes at 27° C. in the absence or presence of test compounds according to the methods of A. T. Evans, et al., Biochem Pharm. […] Res. Comm. […] Compounds are screened at 300 μM.

For assay [5], the system named is Nuclear Factor-kappa B (NF-κB). As to the kind of experiment: NF-κB lacZ (κB-Z) reporter assay in transfected Jurkat cells stimulated with A23187 and PMA. It is filed as cell-based, human. How it is done:
The human T lymphoid cell line Jurkat was transfected with a response element lacZ reporter in which transcription of the β-galactosidase gene is directed by the binding site for the NF-κB transcription factor. […] At the end of the incubation, the cells are spun down and resuspended in the buffer and FDG (fluorescein di-β-D-galactopyranoside) solution. The covered plates are further incubated in the dark for 16 hours at 25° C. […] Compounds were screened at 10 μM.

Take `O=C1OC(CCSc2cccc3ccccc23)C(O)=C1O` (stereo not shown) [Example 25, 3,4-Dihydroxy-5-[2-(naphthyl-1-thio)ethyl]-2(5H)-furanone]: the inhibition at 30 µM in assay [1] was 102%. Also, the inhibition at 1 µM in assay [1] (test conc. 1 μM (Table II)) worked out at 56%. Moreover, the COX-1 percent inhibition in assay [2] stood at 6%. The LPO percent inhibition in assay [3] came out at 74%. The inhibition at 300 µM in assay [4] is 19%.

For `O=C1OC(CCC#Cc2ccccc2CSc2ccccc2)C(O)=C1O` (stereo not shown) [Example 30, 3,4-Dihydroxy-5-[(4-(2-(phenylthio)methyl)phenyl)-3-butynyl]-2(5H)-furanone], in assay [1], the inhibition at 30 µM worked out at 100%. In addition, the inhibition at 1 µM in assay [1] (test conc. 1 μM (Table II)) amounted to 70%. Moreover, the COX-1 percent inhibition in assay [2] was determined as 26%. For the same molecule, the LPO percent inhibition in assay [3] is on record as 62%. Further, the inhibition at 300 µM in assay [4] was found to be 16%.

In assay [5] (10 μM, κB-Z Jurkat cells, A23187 and PMA (Table III)), `O=C1OC(CCC#Cc2cc(Cc3ccc(F)cc3)cs2)C(O)=C1O` (stereo not shown) [Example 36, 3,4-Dihydroxy-5-[2-(4-(4-fluorophenylmethyl)thiophene)-(3-butynyl)]-2(5H)-furanone] had an NF-κB percent inhibition of 61%. In addition, the results for the half-inhibitory concentration (IC50) in assay [5] (Table III) and in assay [1] (Table II) were 6 µM and 160 nM, respectively. Further, in assay [1] (Table I cell printed "@1" instead of the 30 μM of the head), the 5-LO percent inhibition is listed as 85%. Moreover, the “Percent inhibition of 5-LO” value in assay [1] (test conc. 1 μM (Table II)) is recorded as 91%.

`CCC/C=C\Cc1ccccc1C#CCCC1OC(=O)C(O)=C1O` (stereo not shown) [Example 29]: the inhibition at 30 µM in assay [1] came to 81%. For the same molecule, the inhibition at 1 µM in assay [1] (test conc. 1 μM (Table II)) amounted to 56%. Also, the COX-1 percent inhibition in assay [2] came to 55%. Also, the LPO percent inhibition in assay [3] is given as 72%. The inhibition at 300 µM in assay [4] amounted to 26%.

In the case of `O=C1OC(CCN2c3cccc4cccc(c34)S2(=O)=O)C(O)=C1O` (stereo not shown) [Example 20, 3,4-Dihydroxy-5-[2-(1,8-naphthosultam)-N-ethyl]-2(5H)-furanone], in assay [1], the inhibition at 30 µM was 91%. Also, in assay [1] (test conc. 1 μM (Table II)), the inhibition at 1 µM turned out to be 38%. Besides, in assay [2], the COX-1 percent inhibition is given as -15%. Besides, the LPO percent inhibition in assay [3] was 61%. The inhibition at 300 µM in assay [4] came out at 13%.

On to `CCCCNS(=O)(=O)c1ccccc1C#CCCC1OC(=O)C(O)=C1O` (stereo not shown) [Example 31], for which the inhibition at 30 µM in assay [1] was 81%. Besides, the COX-1 percent inhibition in assay [2] worked out at 37%. Besides, in assay [3], the LPO percent inhibition stood at 73%. The inhibition at 300 µM in assay [4] was 23%.

On to `CC1(c2ccccc2)OC(=O)C(O)=C1O` (stereo not shown) [Example 1, 3,4-Dihydroxy-5-methyl-5-phenyl-2(5H)-furanone], for which, in assay [1], the inhibition at 30 µM is 58%. Also, in assay [2], the COX-1 percent inhibition is on record as -12%. In assay [3], the LPO percent inhibition was found to be 63%. Moreover, the inhibition at 300 µM in assay [4] was 3%.

Consider `CC(C)Cc1ccc(C2(C)OC(=O)C(O)=C2O)cc1` (stereo not shown) [Example 3, 3,4-Dihydroxy-5-methyl-5-[4-(2-methylpropyl)phenyl]-2(5H)-furanone], for which the inhibition at 30 µM in assay [1] was found to be 99%. In assay [2], the COX-1 percent inhibition is listed as 2%. Besides, in assay [3], the LPO percent inhibition is on record as 78%. The inhibition at 300 µM in assay [4] was -4%.

In the case of `O=C1OC(CCOc2ccc(Oc3ccccc3)cc2)C(O)=C1O` (stereo not shown) [Example 15, 3,4-Dihydroxy-5-[2-(4-phenoxy)phenoxyethyl]-2(5H)-furanone], the inhibition at 30 µM in assay [1] was 100%. Further, in assay [1] (test conc. 1 μM (Table II)), the inhibition at 1 µM worked out at 52%. For the same molecule, the COX-1 percent inhibition in assay [2] amounted to 9%. Besides, the LPO percent inhibition in assay [3] was -5%. The inhibition at 300 µM in assay [4] was -4%.

With `O=C1OC(CCOc2ccc(-c3ccccc3)cc2)C(O)=C1O` (stereo not shown) [Example 22, 5-[2-((1,1'-Biphenyl)-4-oxy)ethyl]-3,4-dihydroxy-2(5H)-furanone], the inhibition at 30 µM in assay [1] turned out to be 99%. Further, the inhibition at 1 µM in assay [1] (test conc. 1 μM (Table II)) was 55%. The COX-1 percent inhibition in assay [2] is recorded as 18%. The LPO percent inhibition in assay [3] stood at 74%. Further, the inhibition at 300 µM in assay [4] is 10%.

In the case of `O=C1OC(CCOc2cccc3ccccc23)C(O)=C1O` (stereo not shown) [Example 18, 3,4-Dihydroxy-5-[2-(1-naphthoxy)ethyl]-2(5H)-furanone], the inhibition at 30 µM in assay [1] is 99%. Also, in assay [1] (test conc. 1 μM (Table II)), the inhibition at 1 µM stood at 49%. Further, in assay [2], the COX-1 percent inhibition is reported as 11%. Also, the LPO percent inhibition in assay [3] was 71%. Also, the inhibition at 300 µM in assay [4] was -12%.
